Measurements published in paper PMC10224441, “Structural Manipulations of Marine Natural Products Inspire a New Library of 3-Amino-1,2,4-Triazine PDK Inhibitors Endowed with Antitumor Activity in Pancreatic Ductal Adenocarcinoma” (Marine Drugs, 2023).

Columns and labels:
recombinant human PDK1 = target: T1, recombinant human PDK1 (Homo sapiens, UniProt Q15118); test: PDK1 ADPGlo Kinase Assay; type: biochemical; conditions: for inhibition of PDK1 enzymatic activity: 1.5 µM compound, 30 min, room temperature; for IC50: isolated PDK1 isoform, four-parameter logistic model, mean of 3 independent experiments, read-out: IC50 (µM) ± S.D. PDK1
T1 construct: purchased Abcam
Description: The ability of the tested compounds to hamper the activity of PDK1-4 isoforms was firstly evaluated by means of a chemioluminescent assay, the ADPGlo™ Kinase Assay kit (Promega Corporation, Madison, WI, USA).
(§1) The in vitro inhibitory activity of tested compounds on recombinant human PDK1-4 isoforms (Abcam, Cambridge, MA, USA) was evaluated by using the ADPGlo™ Kinase Assay kit from Promega (Promega Corporation, Madison, WI, USA) following the instructions of the manufacturer, as previously described.

recombinant human PDK4 = target: T2, recombinant human PDK4 (Homo sapiens, UniProt Q16654); test: PDK4 ADPGlo Kinase Assay; type: biochemical; conditions: 1.5 µM compound, 30 min, room temperature
T2 construct: purchased Abcam
Description: The ability of the tested compounds to hamper the activity of PDK1-4 isoforms was firstly evaluated by means of a chemioluminescent assay, the ADPGlo™ Kinase Assay kit (Promega Corporation, Madison, WI, USA). The results obtained by incubating PDK1-4 isoforms for 30 min at room temperature with 1.5 µM of tested compounds are depicted in Figure 3 panel A as a heat-map summary of the inhibition percentage on PDK1-4 enzymatic activity. All the newly synthesized compounds were able to inhibit the pyruvate dehydrogenase kinases, although to a different extent and showing a preferential activity towards the PDK1 and PDK4 isoforms. […] Conversely, all tested 1,2,4-triazin-3-amines were barely effective in blocking PDK2 activity at 1.5 µM concentration. In addition, IC50 values on the PDK1 isoform were also calculated for all synthesized derivatives and the results are shown in Table 2.
as §1

recombinant human HSP90 = recombinant human HSP90 (Homo sapiens, UniProt P07900); test: HSP90 inhibition assay (Transcreener ADP kit); type: biochemical; conditions: for inhibition of HSP90 enzyme activity: 1.5 µM compound; for IC50: isolated HSP90, four-parameter logistic model, mean of 3 independent experiments, read-out: IC50 (µM) ± S.D. HSP90
Description: Since the ATP binding pockets in PDKs and HSP90 are similar and taking into consideration that these 1,2,4-triazine derivatives conserved a chemical scaffold resembling that of the well-known Hsp90 inhibitor Ganetespib, the most performant PDK inhibitors 4d, 4f, 4h, 5d, 5f, 5h and 5j were also screened for their ability to target HSP90.
The in vitro inhibitory activity of tested compounds on recombinant human HSP90 was assessed by The Transcreener™ ADP kit (Bellbrook Labs, Madison, WI, USA) according to the manufacturer’s protocol as previously described.

[1] = system: BxPC-3 cells (KRAS-wild-type PDAC); test: 2D cytotoxicity, MTT assay, BxPC-3; type: cell-based; conditions: Homo sapiens, BXPC-3; 72 h exposure, MTT test, 2D culture; read-out: IC50 (µM) ± S.D. BxPC-3 (2D)
Description: (§2) All newly developed 1,2,4-amino-triazine compounds were screened for their cytotoxic activity against two human PDAC cell lines, namely, a KRAS-wild-type PDAC cell line (BxPC-3 cells) and a KRAS-mutant PDAC cell line (PSN-1 cells). […] The cytotoxicity parameters, expressed in terms of IC50 and obtained after 72 h of drug exposure by MTT assay, are reported in Table 3.
(§3) All tested compounds were dissolved in DMSO just before the experiment, and a calculated amount of drug solution was added to the cell growth medium to a final solvent concentration of 0.5%, which had no detectable effects on cell viability.
(§4) Human pancreatic PSN-1 and BxPC-3 carcinoma cell lines were obtained by American Type Culture Collection (ATCC, Rockville, MD, USA). Cell lines were maintained in the logarithmic phase at 37 °C in a 5% carbon dioxide atmosphere using RPMI-1640 medium (EuroClone) containing 10% fetal calf serum (EuroClone, Milan, Italy), antibiotics (50 units/mL penicillin and 50 μg/mL streptomycin) and 2 mM l-glutamine.
(§5) The growth inhibitory effect on tumor cells was evaluated by means of MTT assay. Briefly, 5 × 10^3 cells/well were seeded in 96-well microplates in a growth medium (100 μL). After 24 h, the medium was removed and replaced with a fresh one containing the compound to be studied at the appropriate concentration. Triplicate cultures were established for each treatment. After 72 h, each well was treated with 10 μL of a 5 mg/mL MTT saline solution, and following 5 h of incubation, 100 μL of a sodium dodecyl sulfate (SDS) solution in HCl 0.01 M was added. After overnight incubation, cell growth inhibition was detected by measuring the absorbance of each well at 570 nm using a Bio-Rad 680 microplate reader. The mean absorbance for each drug dose was expressed as a percentage of the control untreated well absorbance and plotted vs. drug concentration. IC50 values, the drug concentrations that reduce the mean absorbance at 570 nm to 50% of those in the untreated control wells, were calculated by the four-parameter logistic (4-PL) model. The evaluation was based on means from at least four independent experiments.

[2] = system: PSN-1 cells (KRAS-mutant PDAC); test: 2D cytotoxicity, MTT assay, PSN-1; type: cell-based; conditions: Homo sapiens, PSN1; 72 h exposure, MTT test, 2D culture; read-out: IC50 (µM) ± S.D. PSN-1 (2D)
Description: as §2, §3, §4, §5

BxPC-3 spheroids = test: 3D spheroid cytotoxicity, acid phosphatase (APH) assay, BxPC-3; type: cell-based; conditions: Homo sapiens, 72 h, acid phosphatase (APH) test, read-out: IC50 (µM) ± S.D. BxPC-3 (3D spheroids)
PSN-1 spheroids = test: 3D spheroid cytotoxicity, acid phosphatase (APH) assay, PSN-1; type: cell-based; conditions: Homo sapiens, PSN1, 72 h, acid phosphatase (APH) test, read-out: IC50 (µM) ± S.D. PSN-1 (3D spheroids)
Description: Prompted by these encouraging results, we also screened the newly developed 1,2,4-triazine compounds against 3D spheroids of PDAC KRAS wild-type and mutant cells, to further estimate their anticancer potential in a more predictive environment. […] The PDAC cancer spheroids were treated with tested compounds for 72 h, and cell viability was assessed by means of the acid phosphatase (APH) assay (Table 3). The efficacy of gemcitabine as well as of DCA and DAP was assessed under the same experimental conditions.
Spheroid cultures were obtained by seeding 2.5 × 10^3 PSN-1 cancer cells/well in a round-bottom non-treated tissue culture 96-well plate (Greiner Bio-one, Kremsmünster, Austria) in phenol red-free RPMI-1640 medium (Sigma Chemical Co, St. Louis, MO, USA) containing 10% fetal calf serum and supplemented with 20% methylcellulose stock solution.
An APH-modified assay was used for determining cell viability in 3D spheroids, as previously described. Briefly, the pre-seeded spheroids were treated with fresh medium containing the compound to be studied at the appropriate concentration (range 2.5–200 μM). Triplicate cultures were established for each treatment. After 72 h, each well was treated with 100 μL of the assay buffer (0.1 M sodium acetate, 0.1% Triton-X-100, supplemented with ImmunoPure p-nitrophenyl phosphate; Sigma Chemical Co.) and, following 3 h of incubation, 10 μL of 1 M NaOH solution were added. The inhibition of the cell growth induced by the tested compounds was detected by measuring the absorbance of each well at 405 nm, using a Bio-Rad 680 microplate reader. The mean absorbance for each drug dose was expressed as a percentage of the control untreated well absorbance (T/C) and plotted vs. drug concentration. IC50 values, the drug concentrations that reduce the mean absorbance at 405 nm 50% of those in the untreated control wells, were calculated by the four-parameter logistic (4-PL) model. The evaluation was based on means from at least four independent experiments.

T2 sequence (Q16654 whole entry): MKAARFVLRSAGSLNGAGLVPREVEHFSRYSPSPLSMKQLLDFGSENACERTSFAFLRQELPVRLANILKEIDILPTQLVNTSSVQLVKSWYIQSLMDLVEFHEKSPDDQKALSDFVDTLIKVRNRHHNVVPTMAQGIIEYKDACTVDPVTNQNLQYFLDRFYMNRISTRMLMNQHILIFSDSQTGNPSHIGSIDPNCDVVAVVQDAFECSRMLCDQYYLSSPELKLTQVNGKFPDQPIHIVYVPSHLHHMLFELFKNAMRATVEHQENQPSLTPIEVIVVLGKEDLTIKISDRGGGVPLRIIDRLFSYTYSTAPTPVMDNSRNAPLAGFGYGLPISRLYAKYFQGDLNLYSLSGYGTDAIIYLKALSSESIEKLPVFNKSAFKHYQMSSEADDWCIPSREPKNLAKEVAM
T1 sequence (Q15118 29-436): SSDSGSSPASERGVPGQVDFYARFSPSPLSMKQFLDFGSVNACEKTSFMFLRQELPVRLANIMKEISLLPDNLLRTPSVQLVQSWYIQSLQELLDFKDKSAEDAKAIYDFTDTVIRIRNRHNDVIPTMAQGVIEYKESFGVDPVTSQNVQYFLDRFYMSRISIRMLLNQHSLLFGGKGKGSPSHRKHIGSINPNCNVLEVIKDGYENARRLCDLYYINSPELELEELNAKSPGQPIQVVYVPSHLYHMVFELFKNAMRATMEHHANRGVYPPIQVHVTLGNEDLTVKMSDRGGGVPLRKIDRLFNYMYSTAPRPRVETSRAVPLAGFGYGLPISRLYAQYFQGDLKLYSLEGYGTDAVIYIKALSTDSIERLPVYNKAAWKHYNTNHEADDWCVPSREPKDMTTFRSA

Row | SMILES | inhibition of PDK1 enzymatic activity (recombinant human PDK1) | IC50 (recombinant human PDK1) [µM] | inhibition of PDK4 enzymatic activity (recombinant human PDK4) | inhibition of HSP90 enzyme activity (recombinant human HSP90) | IC50 (recombinant human HSP90) [µM] | IC50 [1] [µM] | IC50 [2] [µM] | IC50 (BxPC-3 spheroids) [µM] | IC50 (PSN-1 spheroids) [µM] | melting point [°C] | decrease of HSP90 catalytic activity (recombinant human HSP90; 1.5 µM compound (equi-doses))
1 | Cn1cc(-c2nnc(N)nc2-c2cn(C)c3ncc(Br)cc23)c2cc(Br)ccc21 [4d, 6-(5-Bromo-1-methyl-1H-indol-3-yl)-5-(5-bromo-1-methyl-1H-pyrrolo[2,3-b]pyridin-3-yl)-1,2,4-triazin-3-amine] | totally hampered | 0.04 ± 0.02 | completely suppress | completely abolish | 0.06 ± 0.02 | 30.2 ± 6.2 | 23.4 ± 3.7 | 176 ± 15.7 | 103 ± 9.1 | – | –
2 | Cn1cc(-c2nnc(N)nc2-c2cn(C)c3ncc(Br)cc23)c2cc(Cl)ccc21 [4f, 5-(5-Bromo-1-methyl-1H-pyrrolo[2,3-b]pyridin-3-yl)-6-(5-chloro-1-methyl-1H-indol-3-yl)-1,2,4-triazin-3-amine] | totally hampered | 0.12 ± 0.04 | – | completely abolish | 0.1 ± 0.03 | 18.4 ± 1.4 | 11.3 ± 1.8 | 169 ± 12.4 | 162 ± 6.8 | 262.1 | –
3 | Cn1cc(-c2nnc(N)nc2-c2cn(C)c3ncc(Br)cc23)c2cc(F)ccc21 [4h, 5-(5-Bromo-1-methyl-1H-pyrrolo[2,3-b]pyridin-3-yl)-6-(5-fluoro-1-methyl-1H-indol-3-yl)-1,2,4-triazin-3-amine] | totally hampered | 0.06 ± 0.02 | – | completely abolish | – | 22.3 ± 2.4 | 17.5 ± 2.8 | 188 ± 14.4 | 77.8 ± 3.8 | 155.6 | –
4 | Cn1cc(-c2nc(N)nnc2-c2cn(C)c3ncc(Br)cc23)c2cc(Br)ccc21 [5d, 5-(5-Bromo-1-methyl-1H-indol-3-yl)-6-(5-bromo-1-methyl-1H-pyrrolo[2,3-b]pyridin-3-yl)-1,2,4-triazin-3-amine] | totally hampered | 0.05 ± 0.02 | completely suppress | completely abolish | 0.07 ± 0.01 | 26.7 ± 6.1 | 21.3 ± 3.5 | 198 ± 14.2 | 216 ± 13.6 | 333.7 | –
5 | Cn1cc(-c2nc(N)nnc2-c2cn(C)c3ncc(Br)cc23)c2cc(Cl)ccc21 [5f, 6-(5-Bromo-1-methyl-1H-pyrrolo[2,3-b]pyridin-3-yl)-5-(5-chloro-1-methyl-1H-indol-3-yl)-1,2,4-triazin-3-amine] | totally hampered | 0.08 ± 0.02 | completely suppress | completely abolish | 0.11 ± 0.04 | 22.4 ± 3.2 | 21.3 ± 4.4 | 229 ± 17.2 | 213 ± 14.4 | 334.6 | –
6 | Cn1cc(-c2nc(N)nnc2-c2cn(C)c3ncc(Br)cc23)c2cc(F)ccc21 [5h, 6-(5-Bromo-1-methyl-1H-pyrrolo[2,3-b]pyridin-3-yl)-5-(5-fluoro-1-methyl-1H-indol-3-yl)-1,2,4-triazin-3-amine] | totally hampered | 0.05 ± 0.03 | completely suppress | completely abolish | 0.09 ± 0.03 | 0.05 ± 0.03 | 27.4 ± 5.1 | 208 ± 12.7 | 132 ± 5.9 | 311.1 | –
7 | COc1ccc2c(c1)c(-c1nc(N)nnc1-c1cn(C)c3ncc(Br)cc13)cn2C [5j, 6-(5-Bromo-1-methyl-1H-pyrrolo[2,3-b]pyridin-3-yl)-5-(5-methoxy-1-methyl-1H-indol-3-yl)-1,2,4-triazin-3-amine] | totally hampered | 0.04 ± 0.02 | completely suppress | – | 0.18 ± 0.04 | 0.04 ± 0.02 | 0.1 ± 0.03 | 79.5 ± 5.4 | 89.7 ± 5.7 | 269.8 | 60–80%
